According to BindingDB's records for doi:10.1021/jm701509k (Astrazeneca, 2008):
pIC50: −log10 of the molar value.

Molecular target: Hematopoietic prostaglandin D synthase (Homo sapiens, UniProt O60760)
Test: In Vitro GST Activity Assay
Details: pH 7.2; 22 °C
Procedure: The PGDS glutathione-S-transferase (GST) activity was measured by using MonoChloroBimane (MCB) as a chromogenic substrate. The assay was run at 384-well format in reaction buffer containing enzyme and test compound. Then MCB and GSH were added for further incubation. After reaction was stopped, the fluorescence was measured (excitation: 390 nm; emission: 478 nm).

Hematopoietic prostaglandin D synthase, sequence (O60760 whole entry): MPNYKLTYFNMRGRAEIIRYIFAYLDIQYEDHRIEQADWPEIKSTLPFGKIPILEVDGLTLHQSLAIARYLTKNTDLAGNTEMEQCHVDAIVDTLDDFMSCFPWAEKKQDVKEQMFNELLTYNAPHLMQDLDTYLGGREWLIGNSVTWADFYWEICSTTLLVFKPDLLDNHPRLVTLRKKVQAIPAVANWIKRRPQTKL

| pIC50 | SMILES |
| --- | --- |
| 5.42 | COc1ccc(-c2cc3c(nn2)-c2ccccc2C3=O)cc1 |
| 4.35 | CCOC(=O)c1cc(OC)c(-c2ccccc2)nn1 [ethyl 5-methoxy-6-phenylpyridazine-3-carboxylate] |
